Source: patent publication US7053047B2, “Cyclic pentapeptides and their preparation” (Purzer Pharmaceutical Co., Ltd., priority 2002, dated 2006)
Marks after values point to notes of the source that are not given here.

Key:
thrombus = test: Thrombolytic effect in thrombolysis rat model (thrombus on bolt in arteriovenous polyethylene tube); type: in vivo, Wistar rat; conditions: for m, thrombus mass reduction: injected in 6 min, bolt weighed after 1 h, n = 8; for thrombolytic effect / potency (comparison in words): thrombolysis rat model, Tables 1 and 2
Method: The thrombolytic effect was evaluated by thrombolysis rat model.
0.1 ml Wistar rat blood was poured into a glass tube (length, 15 mm; external diameter, 5.0 mm; internal diameter, 2.5 mm) which was fixed vertically and the bottom was sealed with a rubber stopper. A stainless steel bolt was inserted quickly, the bolt diameter was 0.2 mm and the length was 12 mm. 15 min later, the bolt containing thrombus was taken out from the glass tube and weighed exactly.
Male Wistar rat weighing 220 g–280 g were anesthetized with pentobarbital sodium (80 mg/kg, i.p). The right arteria carotis communis and the left vena jugulars externa were separated. The bolt containing thrombus was put in the polyethylene tube and one end was inserted into the left vena jugulars externa. 50 IU/kg of heparin sodium was injected as anticoagulant, and the other tube end was inserted into the right arteria carotis communis. At this time the blood flowed from the right arteria carotis to the left vena jugulars externa via the polyethylene tube. Then normal saline solution, UK, GP6A (SEQ ID NO: 26), P6A (SEQ ID NO: 25) and KP6A (SEQ ID NO: 27) were injected in 6 min. The bolt was taken out and weighed after 1 h. The data are listed in Table 1 and Table 2, statistical data analysis was carried out by using student's t test, p<0.05 was considered significant.

[1] = tested on: coronary artery thrombosis; test: Thrombolysis with tissue plasminogene activator in dogs with coronary artery thrombosis; type: in vivo; conditions: injected i.v. together with tissue plasminogene activator
Source text: Peptide 6A is a degradation of fibrinogen β chain analogue which has been known to increase coronary artery and femoral artery blood flow. In 1978(1), peptide 6A was first isolated and purified from the β chain of human fibrinogen by Belew et al.(2). The composition of peptide 6A was confirmed as Ala-Arg-Pro-Ala-Lys (SEQ ID NO: 25). […] In 1997, the inventors prepared peptide 6A and its analogues by solution method and observed that these peptides have good potency for relaxing vascula, lowering blood pressure and anti-thrombosis. The synthetic techniques and functions of these compounds have been described in CN Patent No. 1146458.

[2] = tested on: coronary artery and femoral artery blood flow; conditions: dogs; cited from earlier work

Row | Substance | m, thrombus mass reduction (thrombus; dosage 5 μmol/kg) | m, thrombus mass reduction (thrombus; dosage 10 μmol/kg) | m, thrombus mass reduction (thrombus; dosage 20 μmol/kg) | thrombolytic effect compared with UK (thrombus; high concentration (>10 μmol) versus UK (2000 IU/Kg)) | thrombolytic effect / potency (comparison in words) (thrombus) | parameters of thrombolysis [1] | coronary artery and femoral artery blood flow [2]
1 | Cyclo(Gly-Arg-Pro-Ala-Lys) (GRPAK; cyclic; Cyclo GP6A) [CycloGP6A] | 8.35 ± 2.76^a mg | 17.31 ± 4.29^a mg | 18.38 ± 2.08^a,b,c mg | even better than UK | much more thrombolytic potency than the others |  | 
2 | H-Lys-Arg-Pro-Ala-LysOH (KRPAK; KP6A) | 0.28 ± 2.13 mg |  |  |  |  |  | 
3 | H-Gly-Arg-Pro-Ala-LysOH (GRPAK; GP6A) | 9.31 ± 3.94^a mg | 13.17 ± 4.13^a mg | 16.81 ± 544^a,b mg |  | much more thrombolytic potency than the others |  | 
4 | Cyclo(Lys-Arg-Pro-Ala-Lys) (KRPAK; cyclic; Cyclo KP6A) [CycloKP6A] | 6.13 ± 2.31^a mg |  |  |  |  |  | 
5 | Cyclo(Ala-Arg-Pro-Ala-Lys) (ARPAK; cyclic; Cyclo P6A) [CycloP6A] | 10.62 ± 3.15^a mg |  |  |  |  |  | 
6 | H-Ala-Arg-Pro-Ala-LysOH (H-ARPAK-OH) [Compound P6A] | 6.07 ± 2.14^a mg |  |  |  |  | no additional benefit on the parameters of thrombolysis | increases coronary artery and femoral artery blood flow
